Measured values as given in US7115604B2, “Method for treating erectile dysfunction” (Orion Corporation, priority 2000, dated 2006).

Tested on: NYHA III heart failure patients, who had not had erections for several years
Assay: Clinical data: levosimendan infusion in heart failure patients with erectile dysfunction
Assay type: in vivo, man
Description: Clinical Data Two NYHA III heart failure patients, who had not had erections for several years were treated with levosimendan. Patient I was exposed to 0.05 μg/kg/min continuous infusion of levosimendan for 7 days.

[1] = Patient I, 0.05 μg/kg/min continuous infusion for 7 days

CC1CC(=O)NN=C1c1ccc(NN=C(C#N)C#N)cc1 (single isomer, unassigned; (-)) [levosimendan, (−)-[[4-(1,4,5,6-tetrahydro-4-methyl-6-oxo-3-pyridazinyl)phenyl]hydrazono]propanedinitrile]
erections during the study [1]: erections in the mornings during the whole study
time to reported erections after starting the infusion [1]: 1 days
erections reported (Patient II, 0.1 μg/kg/min continuous infusion for 2 days): reported erections
